Results on 86 compounds are retold here after a melting point compilation (Tetko et al.; mined from patent text by program, amines drawn as free bases though some values may be those of a salt).

SMILES strings stand for the structures.

For the compound `CCCCc1ncc(/C=C2\C(=O)NC(=O)N2CCC(C)C)n1Cc1ccc(C(=O)O)cc1`, the melting point (commonly the temperature, or range, at which the solid turns liquid) lay in the range of 143 to 146 °C. With `Cc1ccnc2c1C(=O)CC(c1cc(F)ccc1F)C2` (stereo unspecified), the melting point was in the range of 75 to 76 °C. Then `COc1ccccc1C(=Cc1ccccc1[N+](=O)[O-])C(=O)O`, with 217 to 219 °C; and `CCCCC1=NC(NC(=O)C2(NC(=O)CCC(C)C)CCCC2)C(=O)N(Cc2ccccn2)c2ccccc21` (stereo unspecified), with 63 to 67 °C.

Compound `O=C(O)[C@@H]1C[C@@H](O)CN1CCO` registered a melting point of 202 to 204 °C.

In turn, `CON=C(C)C(=NOCc1ccccc1)C(=O)O` returned a melting point of 88 to 89 °C.

For the compound `CCOP(=O)(OCC)c1ccc(N)cc1`, the melting point was in the range of 112 to 116 °C.

For `CN(C)C(=O)/C=C/c1ccc(C(=O)c2c(-c3ccc(O)cc3)sc3cc(O)ccc23)cc1`, the melting point was 208 to 211 °C. In the case of `CCCCN(CCCC)c1ccc(C=Cc2cc(C)c(C=CC3=C(C#N)C(=C(C#N)C#N)OC3(C)C(F)(F)F)cc2C)c(OC)c1` (stereo unspecified) it was 205 to 207 °C; in that of `CC1(C)CC(NC(=O)c2cc(C(C)(C)C)c(O)c(C(C)(C)C)c2)CC(C)(C)N1`, 256 to 258 °C. `CCOC(=O)c1nc2ccc(F)cc2n(CC)c1=O` came in with a melting point of 99 to 102 °C. Then `Cc1csc2c1S(=O)(=O)N=C(NC(C)C)N2`, with 152 to 154 °C; and `CCCCN(Cc1ccc(-c2ccccc2-c2nnn[nH]2)cc1)c1ncccc1CNC(C)=O`, with 108 to 110 °C; and `O=C(O)c1ccccc1-c1ccc(C(=O)N2Cc3ccc(C(=O)NCc4cccnc4)n3Cc3ccccc32)cc1`, with 189 to 191 °C. In the case of `Cc1cc(C2=NN(c3nccs3)[C@H](C)Cc3cc4c(cc32)OCO4)ccc1[N+](=O)[O-]` it was 138 to 142 °C. Take `Nc1nc(NC2Cc3ccccc3C2)nc2c1ncn2C1OC(CO)C(O)C1O` (stereo unspecified): the melting point was 129 to 132 °C. On to `CC(C)(C)n1ncc(S)c(Cl)c1=O`, for which the melting point was in the range of 112 to 113 °C. Then `CC(=O)SCSCc1cn(C(c2ccccc2)(c2ccccc2)c2ccccc2)nn1`, with 106 °C. `Cc1ccsc1C(Cc1ccccc1NCN1C(=O)CCC1=O)N(C)C=O` (stereo unspecified) yielded a melting point of 160 to 164 °C. In the case of `Nc1ccc(-c2noc(-c3cnn4c(C(F)(F)F)cc(-c5cccc(C(F)(F)F)c5)nc34)n2)cn1` it was 264 °C; in that of `CCOC(=O)C(=CNc1nnc(C(F)(F)F)s1)C(=O)c1cc(F)c(Cl)nc1Cl`, 73 to 76 °C. Then `CC(COc1ccc(Oc2ccccc2)cc1)=NO`, with 59 to 61 °C; and `O=C(Nc1ccc(O)c(O)c1)C12CC3CC(CC(C3)C1)C2`, with 196 to 199 °C; and `CON1CCC(C#N)(N(O)C(=O)Cc2cc(C)ccc2C)CC1`, with 153 to 156 °C. In the case of `COc1cc(C=C(C)[N+](=O)[O-])ccc1OCC(=O)O` it was 116 to 117 °C; in that of `CC(=O)OC1CC2(C)C(Sc3ccccc3)=CCC2C2CCC3=CC(=O)C=CC3(C)C12F` (stereo unspecified), 229 to 231 °C. In turn, `CCOc1nc(O)cc(O)n1` gave a melting point of more than 250 °C.

Take `CCCCCCCCCCCCCC(=O)OCC1OC(n2cc(F)c(=O)n(C(=O)c3ccc(C)cc3)c2=O)CC1OC(=O)CCCCCCCCCCCCC` (stereo unspecified): the melting point was 76 to 77 °C. In the case of `COC[C@@H](NC(=O)c1nn(-c2ccc(F)cc2F)c2c1C1CCC2C1)c1ccc(F)cc1` (stereo partly specified) it was 109 to 111 °C; in that of `Cc1cc(CN2CCN(c3nc(C)c(C(=O)NCc4cccnc4)s3)C2=O)no1`, 185 to 188 °C; in that of `CCNc1cccnc1N1CCN(C(=O)c2ccc(C(=O)N(CC)CCO)cc2)CC1`, 106 to 108 °C. Then `O=C(Cc1ccccc1)N1CCC2(c3cccc(O)c3)CCCC2C1` (stereo unspecified), with 135 to 137 °C; and `CCc1cc([N+](=O)[O-])c(Cl)c([N+](=O)[O-])c1COC`, with 81 to 82 °C. On to `CN(CC(N)=O)C1Cc2ccccc2C1`, for which the melting point was in the range of 122 to 123 °C. In the case of `CCOCCOc1ccc(-c2ccc3c(c2)C=C(C(=O)Nc2ccc(CN(C)C4CCOCC4)cc2)CCS3(=O)=O)cc1C` it was 212 to 213 °C.

As for `COc1cc2c(C)c(C#N)cnc2cc1OCc1cccnc1`, the melting point is 206 to 210 °C. `COc1cc(-c2cnc3[nH]cc(C(=O)C(C)(C)C)c3n2)cc(OC)c1OC` yielded a melting point of 240 to 241 °C. Then `O=c1[nH]c2ncc(-c3ccc(O)cc3)nc2n1CCO`, with 308 to 310 °C; and `O=C(O)COc1cc(F)ccc1C(=O)NCc1nc2c(F)c(F)cc(F)c2s1`, with 172 to 174 °C.

In turn, `CC(=O)NC[C@H]1CN(c2ccc(C(=O)c3ccc4ccc(C)cn34)cc2)C(=O)O1` registered a melting point of 237 to 239 °C.

As for `CC(C)[C@H](NC(=O)Cc1csc(N(C)C)n1)C(=O)N[C@@H](Cc1ccccc1)C[C@H](O)[C@H](Cc1ccccc1)NC(=O)Cc1cncs1`, the melting point was in the range of 162 to 165 °C. Then `COC(=O)c1nc2n(n1)-c1ccc(Cl)cc1N(c1ccccc1)C2`, with 190 to 194 °C; and `Oc1ccc(Sc2cccc(F)n2)cc1`, with 123 to 124 °C. Then `CCC(O)C#Cc1ccc2c(=O)c(-c3ncc[nH]3)c(N)n(CC3CC3)c2n1` (stereo unspecified), with 252 °C; and `CC1(C)C=Cc2cc(S(=O)(=O)c3ccccc3)ccc2O1`, with 95 to 96 °C; and `O=c1nccc2sc3cc(-c4ccccc4)ccc3n12`, with 196 to 197 °C. Compound `CCOC(=O)c1ncn2c1C(C)N=C(c1ccccc1)c1cc(C#C[Si](C)(C)C)ccc1-2` (stereo unspecified) gave a melting point of 160 to 162 °C. In the case of `O=C(O)CS(=O)(=O)c1cc(NS(=O)(=O)c2cccs2)c2ccccc2c1O` it was 190 to 192 °C; in that of `CCCCCCCCCCCCCCCCCCOc1ccc(C(=O)OC)c(OCCCOc2ccc(OCc3ccccc3)cc2)c1`, 68 to 70 °C.

`CC(=O)OCC1OC(Oc2ccsc2Cc2ccc(OC(F)(F)F)cc2)C(OC(C)=O)C(OC(C)=O)C1OC(C)=O` (stereo unspecified) came in with a melting point of 113 to 114 °C.

For the compound `COc1ccc2[nH]c(S(=O)Cc3cc(N4CCOCC4)c(F)cn3)nc2c1` (stereo unspecified), the melting point was 109 to 111 °C. Then `Cc1ccc(O)c2c1C(C)CC2=O` (stereo unspecified), with 52 to 53 °C; and `COC(=O)/C=C/n1cnc2ccc(O)cc2c1=O`, with 252 to 256 °C; and `COc1ccc(CC(NC(=O)OC(C)(C)C)C(=O)O)cc1` (stereo unspecified), with 94 to 96 °C. In the case of `COc1ccc(Cn2c(S(=O)(=O)Cc3ccc(C)cn3)nc3cscc32)cc1` it was 148 to 150 °C. As for `COc1ccc(-c2cnn3c(-c4cccc(NC(=O)CC(C)C)c4)ccnc23)cc1`, the melting point lay in the range of 225 to 227 °C. Take `COc1ccc2c(c1)c1c(n2C(=O)c2ccc(F)cc2)CCC(C(=O)O)C1` (stereo unspecified): the melting point lay in the range of 258 to 260 °C. In the case of `COc1ccc(C=O)cc1CN1C(=O)c2ccccc2C1=O` it was 109 to 111 °C; in that of `Cc1noc(NS(=O)(=O)c2cccc(Cl)c2Cl)c1Br`, 166 to 169 °C. In the case of `Cc1noc2cc3c(cc12)C1(CO3)C(=O)N(CC2CCCO2)c2ccccc21` (stereo unspecified) it was 134 to 135 °C. Compound `Cc1nc2c(cc1C(=O)NC(=N)N)CCCCC2CS(=O)(=O)O` (stereo unspecified) gave a melting point of 245 to 247 °C.

Consider `O=C(O)CCCc1cc2nc(Cl)ccc2n1S(=O)(=O)c1cccc(Cl)c1`, for which the melting point came out at 174 °C.

`COC(=O)c1nn(-c2cccnc2)cc1N`: the melting point is 102 to 108 °C. `S=C(NCCCN1CCCC1)NCCCN(Cc1ccc(Cl)c(Cl)c1)c1ccc(Br)cn1` gave a melting point of 122 to 124 °C. Then `O=C(O)c1cccc(-c2cccc(OCCc3cccc(F)c3)n2)c1`, with 142 to 143 °C. In turn, `CC(C)CCC(O)C(C)C1CC=C2C3=C(CCC21C)C1(C)CCC(OC(=O)c2ccccc2)C(C)(C)C1CC3` (stereo unspecified) showed a melting point of 142 to 143 °C.

For `Cc1nc(C)c(C(=O)Nc2ccc(-n3nc(C(F)(F)F)cc3C(F)(F)F)cc2)s1`, the melting point was 158 to 159 °C.

Compound `O=C1CCCc2sc(CCN3CCC(c4csc5cc(F)ccc45)CC3)cc2N1` registered a melting point of 191 to 193 °C. Then `CN(C(=O)N(C)c1ccc(CCl)cc1)c1ccc(CCl)cc1`, with 72 to 73 °C. In the case of `CC(C)N1CCC(C2c3ccccc3C=Cc3ccccc32)CC1` it was 124 to 126 °C; in that of `CCCCCCCCCCCCCCCCC12CCC3=C(CCc4cc(OC)ccc43)C1=CCC2=O` (stereo unspecified), 55 to 56 °C. Then `Cc1c(-c2ccc(OCc3ccccc3)cc2)n(Cc2ccc(OCCN3[C@H](C)CCC[C@@H]3C)cc2)c2ccc(OCc3ccccc3)cc12`, with 106 to 107 °C. The compound `c1ccc(CCc2ccc[nH]2)cc1` registered a melting point of 40 to 42 °C. In the case of `N#CCCCOc1ccc(C(=O)O)cc1` it was 193 to 194 °C. `S=C(Cc1cccnc1)N1CCOCC1`: the melting point fell in the range of 158 to 160 °C. In the case of `COc1c2c(c(OC(C)=O)c3c1C(=O)c1c(cc(OC(C)=O)c(C)c1OC(C)=O)C3=O)-c1c(cc3cnn(-c4ccccc4)c(=O)c3c1OC(C)=O)CC2` it was 273 °C; in that of `Cc1ccn2c(C)c(-c3ccc4sc(=O)n(C)c4c3)nc2c1`, 204 to 206 °C. In the case of `O=C(OCc1ccccc1)N1CCN(c2cc(=O)[nH]cn2)CC1` it was 247 to 249 °C; in that of `CC1(C(=O)c2c[nH]c3ncc(-c4cccc(N5CCN(S(N)(=O)=O)CC5)c4)nc23)CCCCC1`, 233 to 235 °C; in that of `Cc1c(CCCCCCCCCC(=O)O)cccc1C(=O)c1ccc(Cl)cc1`, 74 °C.

Turning to `CCC12CCC(=O)C=C1c1c(cc(OCC(=O)O)c(Cl)c1Cl)C2` (stereo unspecified), the melting point was 237 to 238 °C. For `Cc1ccc([N+](=O)[O-])c(C#N)c1C`, the melting point was in the range of 107 to 108 °C. In the case of `COc1ccc(C2(C#N)CCC(=O)CC2)cc1OC` it was 111 to 112 °C; in that of `Cc1c(Nc2ncc(Br)cc2C(=O)O)cccc1C(F)(F)F`, 222 to 224 °C. Then `CC1(C)NC(=O)N(CCC(COc2ccc(-c3ccc(C#N)cc3)cc2)N(O)C=O)C1=O` (stereo unspecified), with 202 to 204 °C; and `CCCCCCCCCCCc1ccc(F)c(-c2nc(-c3c(F)cccc3F)nn2C)c1`, with 70 to 73 °C.
